The subject of this series is patients presenting with acute pain from suspected renal colic. The series is described as follows: Clinical Study A: analgesic efficacy and safety of cizolirtine citrate versus sodium metamizol, single intravenous dose. To be noted: for proportion of patients showing complete pain relief / proportion of patients showing satisfactory pain relief (decrease of pain intensity ≧50%): VAS at t+30 min; for Pain in the VAS at t + 30 min (LSM [SEM]), primary efficacy endpoint: per protocol population, 100 mm VAS, 30 min after start of single iv infusion (350 mg cizolirtine citrate or 2,500 mg sodium metamizol), adjusted means; for number of adverse events: per treatment group (32 randomized each), vomits and one episode of fever, all mild or moderate, none serious. The series is classed as in vivo, human. As for the experimental part:
Objectives: to compare the analgesic efficacy and safety of cizolirtine citrate, an inhibitor of the release of the substance P, versus sodium metamizol to treat acute pain. Method: sixty four patients presenting with acute pain from suspected renal colic were randomized to a single intravenous dose of either 350 mg of cizolirtine citrate or 2,500 mg of sodium metamizol. Pain was assessed throughout 6 hours by means of visual analogical (VAS) and categorical scales. Results: renal colic was confirmed in all patients randomized. After 30 minutes, pain adjusted mean scores (100 mm VAS) were (LSM±SEM) 39.203±4.4 mm and 30.155±4.2 mm. In the cizolirtine and metamizol groups, respectively (p=0.1203). […] However, efficacy was lower than that of the comparator, an established treatment.
Study population: Subjects of either sex aged between 18 and 65 years old suffering moderate to severe pain due to a suspected renal colic starting within previous 24 hour and having a urine dipstick test positive for haematuria. Since this was an exploratory pilot phase II study, a formal sample size calculation was not performed. Moreover, no previous information regarding a comparison between the effects of sodium metamizol and placebo as analgesics for the management of renal colic could be found. Therefore, a minimum effect size to establish a non-inferiority margin was not be established. Nevertheless, to detect a difference of at least 25 mm in pain intensity measured with the VAS assuming a common standard deviation of 36.1 by means of a one-sided t test, 26 patients per group were necessary. Considering a dropout rate of 20%, 64 patients were recruited in the study
Study treatments: Either one single 350 mg dose of cizolirtine citrate or one single 2,500 mg dose of sodium metamizol by slow intravenous infusion in 15 minutes in a double-blind and randomized fashion and in a 1:1 proportion. Rescue doses of butorphanol were given as needed but were not allowed during the first 30 minutes.
Measurements: Patients ranked their pain intensity on both a visual analogical scale (VAS) and a verbal categorical scale at baseline and 15, 30 and 45 minutes and 1, 2, 3, 4, […] after receiving the study drug. Vital signs were determined also at 15, 30 and 45 minutes and at 1 and 6 hours. Active questioning for adverse events since receiving study medication was done after 2 hours. Confirmatory diagnosis of an ureteral stone had to be established before the end of the study.
Primary endpoint: mean pain intensity as determined by the VAS 30 minutes after the start of study drug administration (t+30 min).
Statistics: Demographic and baseline continuous variables values were compared between treatment groups by means of a t test. Primary efficacy analyses were performed in the per protocol population. An analysis of covariance model with the factors treatment, centre and the treatment by centre interaction and considering the baseline value as a covariate was used or the comparison between the groups. In addition, the bilateral 95% confidence interval was calculated for the difference between treatments.
The proportions of patients with complete and satisfactory pain relief between treatments at t+30 min were compared between treatment groups by means of a chi-square test and also the bilateral 95% confidence intervals for the differences were calculated. The time-treatment variables were evaluated by means of the Kaplan-Meier method and the log-rank test was used to compare the treatment groups, pain intensity differences as determined by means of the visual analogical scale (APID), pain intensity differences as determined by means of the categorical scale (CPID) and relief of pain as determined by means of the categorical scale on pain relief (PAR) from baseline to t+30 min were compared between treatment groups by means of a repeated measures analysis of variance. […]

[1] abbreviates: 30 min after start of single iv dose, versus baseline.

Molecules are shown by their SMILES.

For `CN(C)CCO[C@H](c1ccccc1)c1ccnn1C.O=C(O)CC(O)(CC(=O)O)C(=O)O` (racemic) [Cizolirtine, (±)-5-{α-[2-(dimethylamino)ethoxy]benzyl}-1-methyl-1H-pirazole citrate], the “proportion of patients showing complete pain relief” value was 48.4%; the “proportion of patients showing satisfactory pain relief (decrease of pain intensity ≧50%)” value is 64.5%; the “Pain in the VAS at t + 30 min (LSM [SEM]), primary efficacy endpoint” value (“Pain … (LSM [SEM]), primary efficacy endpoint” for short) came to 39.203±4.4 mm; the “number of adverse events” value was determined as 3. Under setting [1], the “mean decrease in pain intensity (VAS) at t+30 min” value was 57.2%. Also, where the note is “difference disappears after 2 hours”, the “onset of analgesia relative to comparator (time-curves APID, CPID, PAR)” value is reported as “deferred with respect to that provided by metamizol”.

Regarding `Cc1c(N(C)CS(=O)(=O)[O-])c(=O)n(-c2ccccc2)n1C.[Na+]` [Metamizol, sodium metamizol], the “proportion of patients showing complete pain relief” value was 56.3%; the “proportion of patients showing satisfactory pain relief (decrease of pain intensity ≧50%)” value is 75.0%; the “Pain … (LSM [SEM]), primary efficacy endpoint” value stood at 30.155 mm; the “number of adverse events” value is on record as 3. Moreover, under setting [1], the “mean decrease in pain intensity (VAS) at t+30 min” value was found to be 69.1% and the “mean reductions in pain intensity determined by the VAS at t+30 min” value was determined as 57.1 mm. The “Pain … (LSM [SEM]), primary efficacy endpoint” value (listed as metamizol) was found to be 30.155±4.2 mm.
